# Test results from patent publication US20250215029A1 (Recludix Pharma, Inc., priority 2022, published 2025).
# Biological target: T1, pY641-STAT6 in PBMC (Homo sapiens, UniProt P42226)
# T1 construct: Cryopreserved Peripheral Blood Mononuclear Cells (PBMC) are from AllCells; host or cells: cryopreserved PBMC
# T1 sequence (P42226 1-847): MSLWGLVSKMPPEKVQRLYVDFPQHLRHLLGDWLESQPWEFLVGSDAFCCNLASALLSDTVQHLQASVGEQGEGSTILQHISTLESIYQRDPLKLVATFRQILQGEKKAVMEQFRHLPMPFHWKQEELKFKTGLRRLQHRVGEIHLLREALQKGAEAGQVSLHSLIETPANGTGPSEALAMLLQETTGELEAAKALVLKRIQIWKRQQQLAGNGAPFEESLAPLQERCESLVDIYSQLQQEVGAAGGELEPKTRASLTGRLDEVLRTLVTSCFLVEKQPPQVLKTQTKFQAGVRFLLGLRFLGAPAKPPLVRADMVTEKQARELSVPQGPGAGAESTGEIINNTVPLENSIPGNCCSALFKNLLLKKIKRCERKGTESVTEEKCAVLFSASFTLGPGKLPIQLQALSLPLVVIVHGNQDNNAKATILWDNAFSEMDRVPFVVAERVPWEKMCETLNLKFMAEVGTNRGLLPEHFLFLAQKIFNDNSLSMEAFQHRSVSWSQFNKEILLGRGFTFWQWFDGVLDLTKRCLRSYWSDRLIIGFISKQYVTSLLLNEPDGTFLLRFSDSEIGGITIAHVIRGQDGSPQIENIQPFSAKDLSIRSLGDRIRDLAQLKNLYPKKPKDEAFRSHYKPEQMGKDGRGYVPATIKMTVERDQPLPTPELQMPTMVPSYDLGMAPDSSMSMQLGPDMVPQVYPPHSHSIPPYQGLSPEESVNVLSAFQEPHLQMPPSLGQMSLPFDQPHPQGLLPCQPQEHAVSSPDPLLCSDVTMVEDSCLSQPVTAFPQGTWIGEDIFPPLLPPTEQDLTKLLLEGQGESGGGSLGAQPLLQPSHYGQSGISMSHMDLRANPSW
# Assay: MSD-pSTAT-PBMC Assay (pSTAT6, IL-4 stimulated)
# Type: cell-based
# Details: PBMC, compound 3 hrs, then 1 ng/mL IL-4 for 10 min; Table 115; read-out: STAT6
# Summary of the method: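 PBMC (human, cryopreserved, overnight recovery) + cpd 3 hrs → IL-6 10 ng/mL (STAT3) or IL-4 1 ng/mL (STAT6) ×10 min → lysis with protease/phosphatase inhibitors → MSD capture/phospho detection. IC50, variable slope, DMSO-normalized.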
row,Compound,IC50 [µM]
1,CCCOC(=O)[C@H](C)NP(=O)(Oc1ccccc1)[C@@H](F)c1ccc2sc(C(=O)N[C@H]3CCCC[C@H]4CC[C@@H](C(=O)N5C[C@H](c6cccnc6)[C@@H](C#N)C56CC6)N4C3=O)cc2c1 (stereo partly drawn) [Compound 365],< 0.1

# Same assay, conditions: PBMC, compound 3 hrs, then 1 ng/mL IL-4 for 10 min; Table 1114; read-out: pSTAT6
row,Compound,IC50 [µM]
1,"CC(C)OC(=O)OCOP(=O)(Cc1ccc2sc(C(=O)N[C@H]3CCCC[C@H]4CC[C@@H](C(=O)N5C[C@@H](C#N)[C@H](c6ccccc6)C5)N4C3=O)cc2c1)OCOC(=O)OC(C)C (single isomer, unassigned) [Compound 148, ((((2-(((3S,6S,10aS)-3-((3S,4R or 3R,4S)-3-cyano-4-phenylpyrrolidine-1-carbonyl)-5-oxodecahydro-pyrrolo[1,2-a]azocin-6-yl)carbamoyl)benzo[b]thiophen-5-yl)methyl)phosphoryl)bis(oxy))bis(methylene) diisopropyl bis(carbonate)]",0.1 to 1

# Same assay, conditions: STAT6, PBMC, compound 3 hrs, then 1 ng/mL IL-4 for 10 min; Table 115
row,Compound,IC50 [µM]
1,"CCCOC(=O)[C@H](C)N[P@](=O)(Oc1ccccc1)[C@H](F)c1ccc2sc(C(=O)N[C@H]3CCC[C@H]4CC[C@@H](C(=O)N5CC(c6cnccc6N6CCOCC6)C5)N4C3=O)cc2c1 (single isomer, unassigned) [Compound 1045]",> 3
2,"COCCOC(=O)[C@H](C)NP(=O)(Oc1ccccc1)[C@@H](F)c1ccc2sc(C(=O)N[C@H]3CCC[C@H]4CC[C@@H](C(=O)N5C[C@@H](c6ccccc6)[C@H](C#N)C56CC6)N4C3=O)cc2c1 (stereo partly drawn) [Compound 361, 2-methoxyethyl (((R)-(2-(((3S,6S,9aS)-3-((6R,7S)-7-cyano-6-phenyl-4-azaspiro[2.4]heptane-4-carbonyl)-5-oxooctahydro-1H-pyrrolo[1,2-a]azepin-6-yl)carbamoyl)benzo [b]thiophen-5-yl)fluoromethyl) (phenoxy)phosphoryl)-L-alaninate]",< 0.1
3,"CCCOC(=O)[C@H](C)NP(=O)(Oc1ccccc1)C(F)c1ccc2sc(C(=O)N[C@H]3CCCC[C@H]4CC[C@@H](C(=O)N5C(=O)N(c6cccnc6)C(=O)C56CCC6)N4C3=O)cc2c1 (stereo partly drawn) [Compound 992, propyl (((2-(((3S,6S,10aS)-3-(6,8-dioxo-7-(pyridin-3-yl)-5,7-diazaspiro[3.4]octane-5-carbonyl)-5-oxodecahydropyrrolo [1,2-a]azocin-6-yl)carbamoyl)benzo [b]thiophen-5-yl)fluoromethyl) (phenoxy)phosphoryl)-L-alaninate]",0.1 to 1
4,"CCCOC(=O)[C@H](C)NP(=O)(Cc1ccc2ccc(C(=O)N[C@H]3CCCC[C@H]4CC[C@@H](C(=O)N5CCC(c6cccnc6)C5)N4C3=O)cc2c1)Oc1ccccc1 (stereo partly drawn) [Compound 305, propyl (((7-(((3S,6S,10aS)-5-oxo-3-(3-(pyridin-3-yl)pyrrolidine-1-carbonyl)decahydropyrrolo[1,2-a]azocin-6-yl)carbamoyl)naphthalen-2-yl)methyl)(phenoxy)phosphoryl)-L-alaninate]",0.1 to 1
5,"CCCOC(=O)[C@H](C)NP(=O)(Oc1ccccc1)C(F)(F)c1ccc2ccc(C(=O)N[C@H]3CCCC[C@H]4CC[C@@H](C(=O)N5C[C@@H](c6cc[nH]c(=O)c6)CC56CC6)N4C3=O)cc2c1 (stereo partly drawn) [Compound 414, propyl ((difluoro(7-(((3S,6S,10aS)-5-oxo-3-((R)-6-(2-oxo-1,2-dihydropyridin-4-yl)-4-azaspiro[2.4]heptane-4-carbonyl)decahydropyrrolo[1,2-a]azocin-6-yl)carbamoyl)naphthalen-2-yl)methyl)(phenoxy)phosphoryl)-L-alaninate]",0.1 to 1
6,"CCCOC(=O)[C@H](C)NP(=O)(Oc1ccccc1)C(F)c1ccc2ccc(C(=O)N[C@H]3CCCC[C@H]4CC[C@@H](C(=O)N5C[C@@H](C#N)[C@H](c6ccccc6)C5)N4C3=O)cc2c1 (single isomer, unassigned) [Compound 316]",< 0.1
7,"CCCOC(=O)[C@H](C)NP(=O)(Oc1ccccc1)C(F)c1ccc2ccc(C(=O)N[C@H]3CCCC[C@H]4CC[C@@H](C(=O)N5CC(c6cccnc6)CC56CC6)N4C3=O)cc2c1 (stereo partly drawn) [Compound 429, propyl ((fluoro(7-(((3S,6S,10aS)-5-oxo-3-(6-(pyridin-3-yl)-4-azaspiro[2.4]heptane-4-carbonyl)decahydropyrrolo[1,2-a]azocin-6-yl)carbamoyl)naphthalen-2-yl)methyl)(phenoxy)phosphoryl)-L-alaninate]",< 0.1
8,"CCCOC(=O)[C@H](C)NP(=O)(Oc1ccccc1)[C@H](F)c1ccc2sc(C(=O)N[C@H]3CC[C@H](N4CCC4)C[C@H]4CC[C@@H](C(=O)N5C[C@@H](c6ccccc6)[C@H](C#N)C56CC6)N4C3=O)cc2c1 (stereo partly drawn) [Compound 492, propyl (((S)-(2-(((3S,6S,9S,10aR)-9-(azetidin-1-yl)-3-((6R,7S)-7-cyano-6-phenyl-4-azaspiro[2.4]heptane-4-carbonyl)-5-oxodecahydropyrrolo [1,2-a]azocin-6-yl)carbamoyl)benzo [b]thiophen-5-yl)fluoromethyl) (phenoxy)phosphoryl)-L-alaninate]",< 0.1
9,"CCCOC(=O)[C@H](C)NP(=O)(Oc1ccccc1)[C@@H](F)c1ccc2sc(C(=O)N[C@H]3CCCC[C@H]4CC[C@@H](C(=O)N5C[C@H](c6cccc(OC(F)F)c6)C(C#N)C56CC6)N4C3=O)cc2c1 (relative stereo) [Compound 338, propyl (((R)-(2-(((3S,6S,10aS)-3-((rel-trans)-7-cyano-6-(3-(difluoromethoxy)phenyl)-4-azaspiro[2.4]heptane-4-carbonyl)-5-oxodecahydropyrrolo [1,2-a]azocin-6-yl)carbamoyl)benzo [b]thiophen-5-yl)fluoromethyl) (phenoxy)phosphoryl)-L-alaninate]",< 0.1
10,"CCCOC(=O)[C@H](C)NP(=O)(Oc1ccccc1)[C@@H](F)c1ccc2sc(C(=O)N[C@H]3CCC[C@H]4CC[C@@H](C(=O)N5C[C@@H](c6ccn(C)c(=O)c6)CC56CC6)N4C3=O)cc2c1 (stereo partly drawn) [Compound 346, propyl (((R)-fluoro(2-(((3S,6S,9aS)-3-((R)-6-(1-methyl-2-oxo-1,2-dihydropyridin-4-yl)-4-azaspiro[2.4]heptane-4-carbonyl)-5-oxooctahydro-1H-pyrrolo[1,2-a]azepin-6-yl)carbamoyl)benzo [b]thiophen-5-yl)methyl)(phenoxy)phosphoryl)-L-alaninate]",< 0.1
11,"CCCOC(=O)[C@H](C)NP(=O)(Oc1ccccc1)[C@@H](F)c1ccc2sc(C(=O)N[C@H]3CC[C@H](N4CCC4)C[C@H]4CC[C@@H](C(=O)N5C[C@H](c6ccccc6)[C@@H](C#N)C56CC6)N4C3=O)cc2c1 (stereo partly drawn) [Compound 490, propyl (((R)-(2-(((3S,6S,9S,10aR)-9-(azetidin-1-yl)-3-((6S,7R)-7-cyano-6-phenyl-4-azaspiro[2.4]heptane-4-carbonyl)-5-oxodecahydropyrrolo [1,2-a]azocin-6-yl)carbamoyl)benzo [b]thiophen-5-yl)fluoromethyl) (phenoxy)phosphoryl)-L-alaninate]",0.1 to 1
12,"CCCOC(=O)[C@H](C)NP(=O)(Oc1ccccc1)C(C)c1ccc2ccc(C(=O)N[C@H]3CCCC[C@H]4CC[C@@H](C(=O)N5C[C@@H](c6ccccc6)CC56CC6)N4C3=O)cc2c1 (single isomer, unassigned) [Compound 425]",> 3
13,"CCCOC(=O)[C@H](C)NP(=O)(Oc1ccccc1)[C@@H](F)c1ccc2sc(C(=O)N[C@H]3CCCC[C@H]4CC[C@@H](C(=O)N5C(=O)N(c6ccc(C)nc6)C(=O)C56CC6)N4C3=O)cc2c1 (stereo partly drawn) [Compound 328, propyl (((R)-fluoro(2-(((3S,6S,10aS)-3-(6-(6-methylpyridin-3-yl)-5,7-dioxo-4,6-diazaspiro[2.4]heptane-4-carbonyl)-5-oxodecahydropyrrolo [1,2-a]azocin-6-yl)carbamoyl)benzo [b]thiophen-5-yl)methyl)(phenoxy)phosphoryl)-L-alaninate]",0.1 to 1

# Same assay, conditions: read-out: STAT6; PBMC, compound 3 hrs, then 1 ng/mL IL-4 for 10 min; Table 115
row,Compound,IC50 [µM]
1,"CCCOC(=O)[C@H](C)NP(=O)(Oc1ccccc1)[C@@H](F)c1ccc2sc(C(=O)N[C@H]3CCCC[C@H]4CC[C@@H](C(=O)N5C[C@@H](c6cccc(C(F)F)c6)[C@H](C#N)C56CC6)N4C3=O)cc2c1 (single isomer, unassigned) [Compound 483]",< 0.1

# Biological target: T2, pY705-STAT3 in PBMC (Homo sapiens, UniProt P40763)
# T2 construct: Cryopreserved Peripheral Blood Mononuclear Cells (PBMC) are from AllCells; host or cells: cryopreserved PBMC
# Assay: MSD-pSTAT-PBMC Assay (pSTAT3, IL-6 stimulated)
# Type: cell-based
# Details: PBMC, compound 3 hrs, then 10 ng/mL IL-6 for 10 min; Table 115; read-out: STAT3
# Summary of the method: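 Inhibition of cytokine-induced STAT phosphorylation was measured in recovered human PBMC after 3 hrs compound exposure and a 10 min IL-4 (1 ng/mL) or IL-6 (10 ng/mL) challenge. MSD detection of pY641-STAT6 or pY705-STAT3 yielded IC50 values.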
# T2 sequence (P40763 whole entry): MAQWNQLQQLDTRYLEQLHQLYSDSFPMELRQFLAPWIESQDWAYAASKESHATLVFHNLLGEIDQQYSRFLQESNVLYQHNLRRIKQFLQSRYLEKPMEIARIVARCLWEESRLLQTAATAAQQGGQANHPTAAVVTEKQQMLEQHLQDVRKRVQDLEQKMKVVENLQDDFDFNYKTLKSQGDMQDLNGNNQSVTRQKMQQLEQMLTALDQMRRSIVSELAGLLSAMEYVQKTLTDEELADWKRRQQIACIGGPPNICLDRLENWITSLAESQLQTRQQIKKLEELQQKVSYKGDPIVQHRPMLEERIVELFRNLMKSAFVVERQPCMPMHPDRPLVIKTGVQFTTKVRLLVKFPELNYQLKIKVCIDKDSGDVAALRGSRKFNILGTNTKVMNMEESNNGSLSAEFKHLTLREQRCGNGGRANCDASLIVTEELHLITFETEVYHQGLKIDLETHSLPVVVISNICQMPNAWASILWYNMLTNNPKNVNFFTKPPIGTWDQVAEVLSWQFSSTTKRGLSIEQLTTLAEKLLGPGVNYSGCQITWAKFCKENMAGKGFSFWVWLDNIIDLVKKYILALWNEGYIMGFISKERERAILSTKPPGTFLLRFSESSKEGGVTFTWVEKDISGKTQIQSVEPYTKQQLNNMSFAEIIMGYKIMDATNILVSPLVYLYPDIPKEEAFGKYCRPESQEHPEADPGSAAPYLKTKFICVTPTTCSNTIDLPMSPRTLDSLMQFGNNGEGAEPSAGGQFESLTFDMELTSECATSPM
row,Compound,IC50 [µM]
1,"CCCOC(=O)[C@H](C)N[P@](=O)(Oc1ccccc1)[C@H](F)c1ccc2sc(C(=O)N[C@H]3CCC[C@H]4CC[C@@H](C(=O)N5CC(c6cnccc6N6CCOCC6)C5)N4C3=O)cc2c1 (single isomer, unassigned) [Compound 1045]",< 0.1

# Same assay, conditions: PBMC, compound 3 hrs, then 10 ng/mL IL-6 for 10 min; Table 1114; read-out: pSTAT3
row,Compound,IC50 [µM]
1,"CC(C)OC(=O)OCOP(=O)(Cc1ccc2sc(C(=O)N[C@H]3CCCC[C@H]4CC[C@@H](C(=O)N5C[C@@H](C#N)[C@H](c6ccccc6)C5)N4C3=O)cc2c1)OCOC(=O)OC(C)C (single isomer, unassigned) [Compound 148, ((((2-(((3S,6S,10aS)-3-((3S,4R or 3R,4S)-3-cyano-4-phenylpyrrolidine-1-carbonyl)-5-oxodecahydro-pyrrolo[1,2-a]azocin-6-yl)carbamoyl)benzo[b]thiophen-5-yl)methyl)phosphoryl)bis(oxy))bis(methylene) diisopropyl bis(carbonate)]",> 3
